Data taken from patent publication US6723712B2, “Antiviral agent for use in treatment of cancer” (Institut Gustave Roussy, priority 1999, dated 2004).
Entries after “also recorded” stand apart in the source; their conditions may differ.

Key:
[1] = system: RAJI cells; test: Apoptosis assay (FACS, sub-G1 peak) in RAJI cells; format: cell-based, human; details: Cidofovir 10 μg/ml combined with irradiation (3 and 6 Gy)
Procedure: (§1) a, RAJI cells were cultured in the presence of Cidofovir (5 and 10 μg/ml) and irrediated […] with 3 Gy and then assayed for apoptosis by FACS analysis. C15 tumors were injected intra-tumorally for 5 days with Cidofovir ([…]) and received 7 Gy on day 3 and 5. Animals were sacrified on day 7 and tumors were dissected and prepared for FACS analysis of propidium-iodide nuclei staining as described above.
(§2) The cell cycle distribution was estimated by staining ethanol-fixed cells with propidium iodide and monitoring by FACScan flow cytometer (Becton Dickinson) using cellQuest software. Briefly, 1×10^6 cells were cultured without or with 5 and 10 μg/ml of Cidofovir, 24 hours later cells were irradiated with 3 and 6 Gy and collected 12 and 24 hours after irradiation. The percentage of apoptotic cells was determined by sub-G1 peak.

[2] = system: Bcl2; test: Western blot of Bcl2 in EBV+ cells; format: cell-based, human; details: Cidofovir 10 μg/ml, 48 hrs
Procedure: (§3) b, RAJI cells were cultured in the presence or absence of Ciodofovir (10 μg/ml). At 48 hrs, cells were harvested and analyzed for the expression of LMP1, bcl-2 and bax by Western-blot. For C15, at day 7 portions of tumors where lysed in RIPA buffer and protein extracts were immunoblotted with anti-LMP-1 antibody. The blot from b was stripped and re-probed with a monoclonal β-actin antibody.
(§4) To prepare total proteins, cells lysates were extracted with lysis buffer 50 mM tris, pH 8, 120 mM NaCl, 0,1% SDS, and 0,5% NP-40. The protein concentration in the soluble fraction was determined by using a BioRad protein assay reagent. The viral oncoprotein LMP1 was detected by immunoblotting with a monoclonal anti-LMP1 antibody (clone CS1,CS2,CS3 & CS4 cocktail, RDI). The following antibodies were used: anti-Bcl2 (clone 100 Santa Cruz Biotechnology), anti-Bax (clone B-9, Santa Cruz, anti-E6 (clone CIP5, abcam), anti-E7 (clone Ab-1, oncogene), anti-p53 (clone DO7, Dako). Anti β-actin (clone AC-40, Sigma) was used to control protein loading. Autoradiograms of the Western blot were scanned with the Gil doc 1000 image scanner (Bio-rad, Hercules, Calif.) and densitometric analysis of the bands was performed using the molecular analyst software program (Bio-rad, Hercules, Calif.).

[3] = system: HPV+ tumors; test: Histological sections of HPV+ tumors; format: in vivo, mice; details: Cidofovir combined with irradiation, 2 HPV+ models (data not shown)
Source text: At 10 day after treatment, mice with HPV+ tumors from all groups were sacrified and tumors were excised and fixed in 10% neutral buffered formalin (NBF). The sections from each group were heamatoxylin and eosin (H&E)-stained for histological analysis.

[4] = system: p53; test: Immunoblot densitometry of p53 in HTB33 cells; format: cell-based, human; details: HTB33, Cidofovir 10 μg/ml, scored 1 without Cidofovir
Procedure: (§5) a2b2 HEP2 (a) and HTB33 (b) cells were cultured in the presence or absence of Cidofovir (10 μg/ml) for 3 and 6 days, and cells were collected in exponential phase, lysed and total protein were immunoblotted with the Ab-1 anti-E7, C1P5 […], and DO7 anti-p53. The blots were stripped and re-probed with a monoclonal β-actin antibody.
as §4

[5] = system: cell lines derived from human cervical carcinoma; details: cited from earlier work
[6] = system: non-virally induced tumors; test: Tumor growth of non-virally induced human xenografts in nude mice; format: in vivo; details: cidofovir intra-tumor 60 mg/kg daily 5 days + irradiation 7 Gy on day 3 and 5
Procedure: (§6) In vivo data are reported as the percentage of original (day 0) tumor volume and plotted as fractional tumor volume±S.E. Statistical significance was determined by Kruskal/Wallis and Mann-Withney U tests.
(§7) Female Swiss nu/nu mice were housed throughout experiments in sterile isolators and fed ad libitum with irradiated food (UAR, Villemoisson/Orge, France) and filtered water. Experiments were performed according to the regulation n°86/609/CEE of the European Community. Cell lines were established in vivo in Swiss athymic mice by subcutaneous injection in the right flank of 5×10^6 cells per animal and subsequently maintained in vivo by sequential passages in animals aged 6 to 8 weeks. Nude mice bearing 500-1000 mm3 tumors were used for in vivo experiments. Two types of control were used including both injection of PBS (intra-tumor and intravenous (IV)), irradiation alone, or chemotherapy alone.
Irradiation of cells was performed using a ^137Cs γ-rays source at a dose rate of 1.45 Gy.min^−1. […] Quantification of radiosensitivity was obtained by the surviving fraction at 2 Gy (SF2). Cell survival was also assessed by using proliferation tests (incorporation of tritiated thymidine and MTT). […]
The example presented herewith also relates to the combination of cidofovir with irradiation which was evaluated in vivo in various human viral-associated and also in non viral associated human cancers. […]

[7] = system: E6; test: Immunoblot densitometry of E6 in HEP2 cells; format: cell-based, HPV; details: HEP2, Cidofovir 10 μg/ml, scored 1 without Cidofovir
Procedure: as §5, §4

[8] = system: EBV and HPV cancer cells; test: Radiation-induced DNA repair by Fluorescence In Situ Hybridization (FISH); format: cell-based, human; details: FISH (data not shown)
Source text: Cidofovir is a potent inhibitor of the replication of EBV and HPV in cell culture. In addition, the incorporation into the cellular DNA of the infected cell may disrupt the genomic integrity and enhance susceptibility to apoptosis or necrosis.

[9] = system: LMP-1; test: Immunoblot of LMP-1 in C15 tumors; format: in vivo, EBV; details: intra-tumoral Cidofovir 50 mg/kg/day for 5 days, day 7
Procedure: as §1, §3
To prepare total proteins, cells lysates were extracted with lysis buffer 50 mM tris, pH 8, 120 mM NaCl, 0,1% SDS, and 0,5% NP-40. The protein concentration in the soluble fraction was determined by using a BioRad protein assay reagent. The viral oncoprotein LMP1 was detected by immunoblotting with a monoclonal anti-LMP1 antibody (clone CS1,CS2,CS3 & CS4 cocktail, RDI). […]

[10] = system: Ramos, HTB31, and SCC97 cells; test: Clonogenic survival and proliferation test with irradiation, non virus-containing cells; format: cell-based, human; details: cidofovir 1 to 10 μg/ml combined with irradiation, non virus-related cells
Procedure: (§8) Irradiation of cells was performed using a ^137Cs γ-rays source at a dose rate of 1.45 Gy.min^−1. Briefly survival curves were obtained by irradiating cells (0 to 6 Gy). The linear-quadratic model was used for fitting survival curves. Quantification of radiosensitivity was obtained by the surviving fraction at 2 Gy (SF2). Cell survival was also assessed by using proliferation tests (incorporation of tritiated thymidine and MTT). Irradiation of animals was performed using a 200 kv apparatus.
(§9) It was studied in EBV+ human carcinoma C15 cells, EBV+ lymphoma Raji cells, 2 HPV+ carcinoma HTB33 and HEP2 cells. The effect of the combination was also studied in 3 human cell lines lacking the viral infection namely Ramos (lymphoma) HTB31 and SCC97 (carcinoma) cells.
(§10) For each cell line, several concentrations of cidofovir were used in vitro in combination with irradiation (between 1 and 10 μg/ml). The effect of the combined treatment was evaluated using both a proliferation test and a clonogenic assay for cell survival.

[11] = system: cervical carcinoma xenografts; details: cited from earlier work
[12] = system: E7; test: Immunoblot of E7 in HPV+ HTB33 and HEP2 cells; format: cell-based; details: HPV+ cells exposed to Cidofovir 10 μg/ml
Procedure: as §5, §4

[13] = system: C15, Raji, HEP2, HTB33 tumor xenografts; test: Tumor growth of virus-positive human xenografts in nude mice; format: in vivo
Procedure: as §6, §7, §8
The example presented herewith also relates to the combination of cidofovir with irradiation which was evaluated in vivo in various human viral-associated and also in non viral associated human cancers. The effect of cidofovir alone or combined with irradiation was studied in vivo in nude mice bearing 500-1000 mm3 tumor xenografts. The treatment consisted of 60 mg/kg daily of cidofovir intra-tumor injection for 5 days. In the combined group, irradiation (7 Gy) was performed on day 3 and 5 of cidofovir.

[14] = system: p53; test: Immunoblot densitometry of p53 in HEP2 cells; format: cell-based, human; details: HEP2, Cidofovir 10 μg/ml, scored 1 without Cidofovir
Procedure: as §5, §4

[15] = system: Bax; test: Western blot of Bax in EBV+ cells; format: cell-based, human; details: Cidofovir 10 μg/ml, 48 hrs
Procedure: as §3, §4

[16] = system: C15 tumors; test: Apoptosis assay (FACS, propidium iodide) in C15; format: in vivo, human; details: C15, Cidofovir combined with irradiation
Procedure: as §1, §2

[17] = system: E6; test: Immunoblot densitometry of E6 in HTB33 cells; format: cell-based, HPV; details: HTB33, Cidofovir 10 μg/ml, scored 1 without Cidofovir
Procedure: as §5, §4

[18] = system: human cancer cells; test: Combination with chemotherapeutic drugs, tumor cell growth; format: cell-based; details: in vitro
Procedure: Similar experiments combining a nucleoside analogue with cytotoxic agents other than irradiation were performed (chemotherapeutic drugs, cytokines). The example presented herewith relates to the combination of cidofovir with chemotherapeutic drugs which was evaluated in vitro and in vivo in various virus-associated and non virus-associated human cancers.

[19] = system: LMP-1; test: Western blot of LMP-1 in RAJI cells; format: cell-based, EBV
Procedure: b, RAJI cells were cultured in the presence or absence of Ciodofovir (10 μg/ml). […] For C15, at day 7 portions of tumors where lysed in RIPA buffer and protein extracts were immunoblotted with anti-LMP-1 antibody. The blot from b was stripped and re-probed with a monoclonal β-actin antibody.
as §4

[20] = system: EBV+ and HPV+ cell lines (C15, Raji, HTB33, HEP2); test: Clonogenic survival and proliferation test with irradiation, EBV+ and HPV+ cell lines; format: cell-based, human; details: cidofovir 1 to 10 μg/ml combined with irradiation, virus-related cells
Procedure: as §8, §9, §10

Nc1ccn(C[C@@H](CO)OCP(=O)(O)O)c(=O)n1 [Cidofovir, (S)-1-[3-hydroxy-2-(phosphonomethoxy)propyl]cytosine]
apoptosis [1]: marked increase
Bcl2 expression [2]: downregulation
tumor necrosis (histological sections) [3]: increased tumor necrosis
P53 density score ([4]; 3 days): 2.1
P53 density score ([4]; 6 days): 3.7
cell proliferation [5]: inhibited in a concentration-dependent and in a time-dependent fashion
tumor growth [6]: dramatically reduced the growth delay
E6 band density score ([7]; 3 days): 0.7
E6 band density score ([7]; 6 days): 0.25
radiation-induced DNA repair at the chromosomal level [8]: no significant change
LMP-1 expression [9]: marked decrease
radiosensitization (cell survival) [10]: increased cell kill
radiosensitization (cell survival) ([10]; listed as cidofovir): markedly radiosensitized
tumor growth ([11]; administered topically or systemically, nontoxic concentrations): no reduction of tumor growth
tumor size ([11]; injected intratumorally, compared to placebo group): statistically significant reduction in tumor size
expression of the viral oncoprotein E7 [12]: decreased expression
anti-tumor effect, sub-cutaneous versus intra-tumor administration ([13]; C15, sub-cutaneous 50 mg/kg cidofovir in combination with irradiation): anti-tumor effect of the same magnitude
tumor growth delay ([13]; cidofovir alone, 60 mg/kg daily intra-tumor for 5 days): weak growth delay
tumor growth ([13]; cidofovir intra-tumor 60 mg/kg daily 5 days + irradiation 7 Gy on day 3 and 5): dramatically reduced the growth delay; also recorded: major effect on tumor growth
complete remission of tumors ([13]; combined treatment, 30 to 40 days after the treatment): nearly all the tumors were found to be in complete remission
P53 density score ([14]; 3 days): 1.2
P53 density score ([14]; 6 days): 1.65
Bax expression [15]: up-regulation
apoptosis [16]: marked increase
E6 band density score ([17]; 3 days): 0.67
E6 band density score ([17]; 6 days): 0.32
effect on tumor cell growth in combination with VP16 ([18]; VP16 5 μg/ml): synergic inhibitory effect
effect on tumor cell growth in combination with cis platinum ([18]; cis platinum 2.5 μg/ml): synergic inhibitory effect
LMP-1 expression ([19]; 24 hours after exposure (data not shown)): significant inhibition
LMP-1 expression ([19]; RAJI cells, Cidofovir 10 μg/ml, 48 hrs): marked decrease
radiosensitization (decrease of SF2, surviving fraction at 2 Gy) [20]: increased cell kill
radiosensitization (decrease of SF2, surviving fraction at 2 Gy) ([20]; listed as cidofovir): pronounced radiosensitization
